Structures can show the parent of a compound that is named as a salt. Where two headings read alike, the source gives them in different places.
How the values were obtained:
[1] = test system: white blood cell number, red blood cell number, platelet number; experiment: Evaluation of blood cell number in mouse; type: in vivo; conditions: oral, Day 2 after administration
In short: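 Male ICR mice dosed orally at 1, 10, 50 or 100 mg/kg (suspension in 0.5% methylcellulose/0.02% citric acid/water); whole blood collected on Day 2. White cell, red cell and platelet counts per unit volume by automated haematology analyser, expressed as % of mean of untreated control group.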

[2] = test system: Gad1 H3K4me2 level in rat primary culture neurons; experiment: Gad1 H3K4 methylation induction activity in rat primary culture neurons (ChIP-qPCR); type: cell-based; conditions: Rattus norvegicus, Neuron, 72 h, control without compound = 100%; for activity at 1 µM: read-out: Gad1 H3K4me2 induction activity (%), compound 1 μM, 3 days, rat primary culture neurons; for activity at 10 µM: read-out: Gad1 H3K4me2 induction activity (%), compound 10 μM, 3 days, rat primary culture neurons
Procedure: Gad1 H3K4 Methylation Induction Activity in Rat Primary Culture Neurons
Thereafter, the compound was added to final concentrations of 1 or 10 μM, and the cells were further cultured for 3 days. The culture supernatant was aspirated, ice-cold PBS was added, and the cell suspension was collected on ice using CELL SCRAPER (IWAKI). […] (750 μL). Furthermore, 0.3% NP40/cell lysis buffer 1 (750 μL) was added, and the cells were lysed by incubating for 5 min on ice.
Using the DNA obtained by the chromatin immunoprecipitation as a template, quantitative PCR of the Gad1 gene upstream genomic region was performed, and the measurement value was taken as the Gad1 H3K4me2 level. […] The Gad1 H3K4me2 induction by the compound was expressed by the H3K4me2 level when the compound was added, as compared to the H3K4me2 level of the control (without addition of the compound) as 100%.

[3] = Evaluation of hippocampal distribution in mouse; type: in vivo; conditions: male ICR mice, 10 mg/kg oral; for concentration at 0.5 h: 0.5 hr after administration; for concentration at 1 h: 1 hr after administration
In short: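 Male ICR mice dosed orally at 10 mg/kg as suspension in 0.5% methylcellulose/0.02% citric acid/water. Plasma and hippocampus sampled together at 0.5, 1 or 1.5 h; LC/MS/MS concentrations gave hippocampus/plasma ratio.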

[4] = hippocampus, read-out: hippocampus concentration (mean)
[5] = plasma, read-out: plasma concentration (mean)

O=C(NC1CCN(CC(F)(F)F)CC1)c1cccc([C@@H]2C[C@H]2NCC2CC2)c1 (relative stereo) [Example 108, 3-(trans-2-((cyclopropylmethyl)amino)cyclopropyl)-N-(1-(2,2,2-trifluoroethyl)piperidin-4-yl)benzamide dihydrochloride]
platelet number, percentage of compound administration group compared to control group, mean ([1]; 10 mg/kg): 101.9% | red blood cell number, percentage of compound administration group compared to control group, mean ([1]; 10 mg/kg): 99.0% | white blood cell number, percentage of compound administration group compared to control group, mean ([1]; 10 mg/kg): 127.7% | platelet number, percentage of compound administration group compared to control group, mean ([1]; 100 mg/kg): 94.2% | red blood cell number, percentage of compound administration group compared to control group, mean ([1]; 100 mg/kg): 98.7% | white blood cell number, percentage of compound administration group compared to control group, mean ([1]; 100 mg/kg): 129.4% | activity at 1 µM [2]: 384% | activity at 10 µM [2]: 268% | concentration at 0.5 h [3, 4]: 983 ng/g | concentration at 0.5 h [3, 5]: 684 ng/mL

Cc1nnc(NC(=O)c2cc([C@@H]3C[C@H]3NCC3CC3)ccc2F)s1 (relative stereo) [Example 110, 5-(trans-2-((cyclopropylmethyl)amino)cyclopropyl)-2-fluoro-N-(5-methyl-1,3,4-thiadiazol-2-yl)benzamide dihydrochloride]
platelet number, percentage of compound administration group compared to control group, mean ([1]; 10 mg/kg): 93.4% | red blood cell number, percentage of compound administration group compared to control group, mean ([1]; 10 mg/kg): 98.7% | white blood cell number, percentage of compound administration group compared to control group, mean ([1]; 10 mg/kg): 114.9% | platelet number, percentage of compound administration group compared to control group, mean ([1]; 100 mg/kg): 96.4% | red blood cell number, percentage of compound administration group compared to control group, mean ([1]; 100 mg/kg): 100.4% | white blood cell number, percentage of compound administration group compared to control group, mean ([1]; 100 mg/kg): 112.0% | activity at 1 µM [2]: 172% | activity at 10 µM [2]: 208% | concentration at 0.5 h [3, 4]: 3300 ng/g | concentration at 0.5 h [3, 5]: 4490 ng/mL

Cc1nnc(NC(=O)c2cccc([C@@H]3C[C@H]3NC3CCOCC3)c2)s1 (relative stereo) [Example 165, N-(5-methyl-1,3,4-thiadiazol-2-yl)-3-(trans-2-(tetrahydro-2H-pyran-4-ylamino)cyclopropyl)benzamide fumarate]
platelet number, percentage of compound administration group compared to control group, mean ([1]; 10 mg/kg): 99.3% | red blood cell number, percentage of compound administration group compared to control group, mean ([1]; 10 mg/kg): 100.9% | white blood cell number, percentage of compound administration group compared to control group, mean ([1]; 10 mg/kg): 104.4% | platelet number, percentage of compound administration group compared to control group, mean ([1]; 100 mg/kg): 85.6% | red blood cell number, percentage of compound administration group compared to control group, mean ([1]; 100 mg/kg): 103.2% | white blood cell number, percentage of compound administration group compared to control group, mean ([1]; 100 mg/kg): 87.0% | activity at 1 µM [2]: 272% | activity at 10 µM [2]: 373% | concentration at 1 h [3, 4]: 376 ng/g | concentration at 1 h [3, 5]: 1840 ng/mL

O=C(NC1CCCC1)c1cccc([C@@H]2C[C@H]2NC2CCOCC2)c1 (relative stereo) [Example 168, N-cyclopentyl-3-(trans-2-(tetrahydro-2H-pyran-4-ylamino)cyclopropyl)benzamide hydrochloride]
platelet number, percentage of compound administration group compared to control group, mean ([1]; 10 mg/kg): 106.8% | red blood cell number, percentage of compound administration group compared to control group, mean ([1]; 10 mg/kg): 106.5% | white blood cell number, percentage of compound administration group compared to control group, mean ([1]; 10 mg/kg): 97.6% | platelet number, percentage of compound administration group compared to control group, mean ([1]; 100 mg/kg): 99.0% | red blood cell number, percentage of compound administration group compared to control group, mean ([1]; 100 mg/kg): 101.1% | white blood cell number, percentage of compound administration group compared to control group, mean ([1]; 100 mg/kg): 93.6% | activity at 1 µM [2]: 227% | activity at 10 µM [2]: 263% | concentration at 0.5 h [3, 4]: 439 ng/g | concentration at 0.5 h [3, 5]: 451 ng/mL

Cn1cc(NC(=O)c2cccc([C@@H]3C[C@H]3NC3CCCC3)c2)cn1 (relative stereo) [Example 172, 3-(trans-2-(cyclopentylamino)cyclopropyl)-N-(1-methyl-1H-pyrazol-4-yl)benzamide dihydrochloride]
platelet number, percentage of compound administration group compared to control group, mean ([1]; 10 mg/kg): 97.0% | red blood cell number, percentage of compound administration group compared to control group, mean ([1]; 10 mg/kg): 99.0% | white blood cell number, percentage of compound administration group compared to control group, mean ([1]; 10 mg/kg): 101.3% | platelet number, percentage of compound administration group compared to control group, mean ([1]; 100 mg/kg): 99.6% | red blood cell number, percentage of compound administration group compared to control group, mean ([1]; 100 mg/kg): 97.7% | white blood cell number, percentage of compound administration group compared to control group, mean ([1]; 100 mg/kg): 130.0% | activity at 1 µM [2]: 145% | activity at 10 µM [2]: 204% | concentration at 1 h [3, 4]: 419 ng/g | concentration at 1 h [3, 5]: 556 ng/mL

Cc1nnc(NC(=O)c2cccc([C@@H]3C[C@H]3NC3CCN(C4CC4)CC3)c2)s1 (relative stereo) [Example 176, 3-(trans-2-((1-cyclopropylpiperidin-4-yl)amino)cyclopropyl)-N-(5-methyl-1,3,4-thiadiazol-2-yl)benzamide fumarate]
platelet number, percentage of compound administration group compared to control group, mean ([1]; 10 mg/kg): 96.7% | red blood cell number, percentage of compound administration group compared to control group, mean ([1]; 10 mg/kg): 97.5% | white blood cell number, percentage of compound administration group compared to control group, mean ([1]; 10 mg/kg): 106.6% | platelet number, percentage of compound administration group compared to control group, mean ([1]; 100 mg/kg): 90.2% | red blood cell number, percentage of compound administration group compared to control group, mean ([1]; 100 mg/kg): 100.8% | white blood cell number, percentage of compound administration group compared to control group, mean ([1]; 100 mg/kg): 107.8% | activity at 1 µM [2]: 139% | activity at 10 µM [2]: 116% | concentration at 1 h [3, 4]: 642 ng/g | concentration at 1 h [3, 5]: 515 ng/mL

O=C(NC1CCC(F)(F)CC1)c1cccc([C@@H]2C[C@H]2NC2CCOCC2)c1 (relative stereo) [Example 177, N-(4,4-difluorocyclohexyl)-3-(trans-2-(tetrahydro-2H-pyran-4-ylamino)cyclopropyl)benzamide hydrochloride]
platelet number, percentage of compound administration group compared to control group, mean ([1]; 10 mg/kg): 101.3% | red blood cell number, percentage of compound administration group compared to control group, mean ([1]; 10 mg/kg): 94.5% | white blood cell number, percentage of compound administration group compared to control group, mean ([1]; 10 mg/kg): 136.9% | platelet number, percentage of compound administration group compared to control group, mean ([1]; 100 mg/kg): 97.4% | red blood cell number, percentage of compound administration group compared to control group, mean ([1]; 100 mg/kg): 99.0% | white blood cell number, percentage of compound administration group compared to control group, mean ([1]; 100 mg/kg): 97.1% | activity at 1 µM [2]: 340% | activity at 10 µM [2]: 200% | concentration at 1 h [3, 4]: 324 ng/g | concentration at 1 h [3, 5]: 630 ng/mL

O=C(NC1CCOCC1)c1cccc([C@@H]2C[C@H]2NC2CCC2)c1 (relative stereo) [Example 179, 3-(trans-2-(cyclobutylamino)cyclopropyl)-N-(tetrahydro-2H-pyran-4-yl)benzamide hydrochloride]
platelet number, percentage of compound administration group compared to control group, mean ([1]; 10 mg/kg): 94.8% | red blood cell number, percentage of compound administration group compared to control group, mean ([1]; 10 mg/kg): 102.5% | white blood cell number, percentage of compound administration group compared to control group, mean ([1]; 10 mg/kg): 94.2% | platelet number, percentage of compound administration group compared to control group, mean ([1]; 100 mg/kg): 92.5% | red blood cell number, percentage of compound administration group compared to control group, mean ([1]; 100 mg/kg): 100.4% | white blood cell number, percentage of compound administration group compared to control group, mean ([1]; 100 mg/kg): 121.2% | activity at 1 µM [2]: 175% | activity at 10 µM [2]: 123% | concentration at 0.5 h [3, 4]: 321 ng/g | concentration at 0.5 h [3, 5]: 421 ng/mL

Cn1cc(NC(=O)c2cc([C@@H]3C[C@H]3NC3CCC(F)(F)CC3)ccc2F)cn1 (relative stereo) [Example 186, 5-(trans-2-((4,4-difluorocyclohexyl)amino)cyclopropyl)-2-fluoro-N-(1-methyl-1H-pyrazol-4-yl)benzamide hydrochloride]
platelet number, percentage of compound administration group compared to control group, mean ([1]; 10 mg/kg): 93.1% | red blood cell number, percentage of compound administration group compared to control group, mean ([1]; 10 mg/kg): 101.5% | white blood cell number, percentage of compound administration group compared to control group, mean ([1]; 10 mg/kg): 129.3% | platelet number, percentage of compound administration group compared to control group, mean ([1]; 100 mg/kg): 88.2% | red blood cell number, percentage of compound administration group compared to control group, mean ([1]; 100 mg/kg): 99.2% | white blood cell number, percentage of compound administration group compared to control group, mean ([1]; 100 mg/kg): 111.2% | activity at 1 µM [2]: 239% | activity at 10 µM [2]: 191% | concentration at 0.5 h [3, 4]: 3120 ng/g | concentration at 0.5 h [3, 5]: 1320 ng/mL

Source: patent US9751885B2, “Cyclopropanamine compound and use thereof” (Takeda Pharmaceutical Company Limited, priority 2012, dated 2017)
